US10842878B2, “Degradation of Bruton's tyrosine kinase (BTK) by conjugation of BTK inhibitors with E3 ligase ligand and methods of use” (Dana-Farber Cancer Institute, Inc., priority 2016, dated 2020)

Target: T1, BTK (Homo sapiens, UniProt Q06187)
T1 construct: protein lysate harvest and Western blotting analysis of BTK, Aurora A, and α-tubulin levels; endogenous in cells; host or cells: MOLM14 cells
Assay: Cell assay and Western blotting analysis of BTK levels in MOLM14 cells
Assay type: cell-based
Conditions: MOLM14 cells treated with 40 nM, 200 nM, 1 μM for 4 or 12 hours (FIG. 1: 4 hours); DMSO control; Aurora A and α-tubulin also blotted
Description: MOLM14 cells were treated with DMSO or with 40 nM, 200 nM, 1 μM of a BTK bifunctional inhibitor compound of the disclosure for 4 or 12 hours, followed by protein lysate harvest and Western blotting analysis of BTK, Aurora A, and α-tubulin levels.
Cells are lysed using RIPA buffer supplemented with protease inhibitor cocktail (Roche) and phosSTOP phosphatase inhibitor cocktail (Roche) on ice for 15 minutes. The lysates are spun at 20,000×g for 15 minutes on 4° C. and protein concentration is determined using BCA assay (Pierce). The following primary antibodies are used in this study: BTK, GADPH, tubulin and Aurora A kinase (all from Cell Signaling Technology). Blots are imaged using fluorescence-labeled secondary antibodies (LI-COR) on the OdysseyCLxImager (LI-COR). Quantification of band intensities is performed using OdysseyCLx software (LI-COR).

T1 sequence (Q06187 whole entry): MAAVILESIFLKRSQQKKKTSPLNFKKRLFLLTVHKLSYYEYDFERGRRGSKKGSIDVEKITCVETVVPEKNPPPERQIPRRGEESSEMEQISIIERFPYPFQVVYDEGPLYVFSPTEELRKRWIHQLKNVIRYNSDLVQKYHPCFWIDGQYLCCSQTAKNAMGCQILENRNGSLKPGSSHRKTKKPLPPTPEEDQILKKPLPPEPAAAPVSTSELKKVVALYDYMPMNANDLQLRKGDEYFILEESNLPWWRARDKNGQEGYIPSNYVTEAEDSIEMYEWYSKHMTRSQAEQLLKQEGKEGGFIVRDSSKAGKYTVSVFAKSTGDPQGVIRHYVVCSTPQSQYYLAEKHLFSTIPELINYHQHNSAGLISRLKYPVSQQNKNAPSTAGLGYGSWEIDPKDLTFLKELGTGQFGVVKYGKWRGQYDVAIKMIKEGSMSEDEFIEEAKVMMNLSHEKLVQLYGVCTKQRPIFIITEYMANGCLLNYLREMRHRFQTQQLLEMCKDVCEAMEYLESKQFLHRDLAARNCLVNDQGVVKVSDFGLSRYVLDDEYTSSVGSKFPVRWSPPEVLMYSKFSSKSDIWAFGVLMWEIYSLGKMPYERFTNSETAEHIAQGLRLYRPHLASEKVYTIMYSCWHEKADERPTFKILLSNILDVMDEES

SMILES: Cc1c(NC(=O)c2ccc(C(C)(C)C)cc2)cccc1-c1cn(C)c(=O)c(Nc2ccc(C(=O)N3CCN(CCOCCOCCNC(=O)CNc4cccc5c4C(=O)N(C4CCC(=O)NC4=O)C5=O)CC3)cc2)n1 (stereo not shown) [Compound I-5, 4-(tert-butyl)-N-(3-(6-((4-(4-(2-(2-(2-(2-((2-(2,6-dioxopiperidin-3-yl)-1,3-dioxoisoindolin-4-yl)amino)acetamido)ethoxy)ethoxy)ethyl)piperazine-1-carbonyl)phenyl)amino)-4-methyl-5-oxo-4,5-dihydropyrazin-2-yl)-2-methylphenyl)benzamide]
- BTK degradation (Western blotting analysis of BTK levels): showed BTK degradation
